Earlier results on two molecules are cited in patent publication US20120040927A1, “MEDICINAL ANTIFUNGAL AND STEROID CREAM INCORPORATING A BIOPOLYMER AND A PROCESS TO MAKE IT” (APEX LABORATORIES PRIVATE LIMITED, priority 2009, published 2012).

Test in data set [1]: not given
The source holds these as a separate data set.

Data set [2] has as its system Trichophyton rubrum, Trichophyton mentagrophytes, Epidermophyton floccosum, Microsporum canis and Candida species including Candida albicans.
Test in data set [3]: not given
The source holds these as a separate data set.

Where two headings read alike, the source gives them in different places.

`Clc1ccccc1C(c1ccccc1)(c1ccccc1)n1ccnc1` [Clotrimazole, 1-(o-Chloro-α, α-diphenylbenzyl)imidazole]: the Absorption entry was “well absorbed” (humans, oral administration); “minimally absorbed” (topical and vaginal administration). Moreover, the Solubility in ether entry in data set [1] (ether) is on record as “sparingly soluble”. Also, the “Solubility in polyethylene glycol 400, ethanol and chloroform” value in data set [1] (polyethylene glycol 400, ethanol, chloroform) is “very soluble”. In addition, the Solubility in water result in data set [1] is on record as “practically insoluble”. Besides, in data set [2], the “In vitro antifungal activity against isolates” value was “fungistatic and fungicidal activity”. Besides, the Protein binding result in data set [3] is “about 90%”.

With `CC(=O)OCC(=O)[C@@]1(O)CC[C@H]2[C@@H]3CCC4=CC(=O)CC[C@]4(C)[C@H]3[C@@H](O)C[C@@]21C` [Hydrocortisone Acetate], the “Solubility in alcohol and in chloroform” value in data set [1] (alcohol, chloroform) is given as “slightly soluble”. Further, in data set [1], the Solubility in water result is “insoluble”.
